Measured values reported in the NIST ThermoML archive (doi:10.1016/j.jct.2012.03.003).

Experiment: xn = mol fraction of the nth substance listed
Conditions: Liquid, Vibrating tube method

COc1cc2c(cc1O)CC1c3c(cc(O)c(OC)c3-2)CCN1C (stereo not given) [boldine] + CCO
Conditions | mass density [kg/m3]
323.04 K, 16000 kPa, x1 = 0.0074 | 793.69
323.04 K, 16000 kPa, x1 = 0.0196 | 821.98
323.04 K, 17000 kPa, x1 = 0.0074 | 794.55
323.04 K, 17000 kPa, x1 = 0.0196 | 822.81
323.04 K, 18000 kPa, x1 = 0.0074 | 795.4
323.04 K, 18000 kPa, x1 = 0.0196 | 823.62
323.04 K, 19000 kPa, x1 = 0.0074 | 796.23
323.04 K, 19000 kPa, x1 = 0.0196 | 824.42
323.04 K, 20000 kPa, x1 = 0.0074 | 797.04
323.04 K, 20000 kPa, x1 = 0.0196 | 825.2
323.05 K, 1000 kPa, x1 = 0.0267 | 820.88
323.05 K, 2000 kPa, x1 = 0.0267 | 821.74
323.05 K, 3000 kPa, x1 = 0.0267 | 822.62
323.05 K, 4000 kPa, x1 = 0.0267 | 823.5
323.05 K, 5000 kPa, x1 = 0.0267 | 824.37
323.05 K, 6000 kPa, x1 = 0.0267 | 825.26
323.05 K, 7000 kPa, x1 = 0.0267 | 826.15
323.05 K, 8000 kPa, x1 = 0.0267 | 827.02
323.05 K, 9000 kPa, x1 = 0.0267 | 827.89
323.05 K, 10000 kPa, x1 = 0.0267 | 828.78
323.05 K, 11000 kPa, x1 = 0.0267 | 829.64
323.05 K, 12000 kPa, x1 = 0.0267 | 830.5
323.05 K, 13000 kPa, x1 = 0.0267 | 831.36
323.05 K, 14000 kPa, x1 = 0.0267 | 832.21
323.05 K, 15000 kPa, x1 = 0.0267 | 833.04
323.05 K, 16000 kPa, x1 = 0.0267 | 833.87
323.05 K, 17000 kPa, x1 = 0.0267 | 834.68
323.05 K, 18000 kPa, x1 = 0.0267 | 835.48
323.05 K, 19000 kPa, x1 = 0.0267 | 836.27
323.05 K, 20000 kPa, x1 = 0.0267 | 837.04
323.11 K, 1000 kPa, x1 = 0.0136 | 793.39
323.11 K, 2000 kPa, x1 = 0.0136 | 794.29
323.11 K, 3000 kPa, x1 = 0.0136 | 795.2
323.11 K, 4000 kPa, x1 = 0.0136 | 796.12
323.11 K, 5000 kPa, x1 = 0.0136 | 797.04
323.11 K, 6000 kPa, x1 = 0.0136 | 797.96
323.11 K, 7000 kPa, x1 = 0.0136 | 798.88
323.11 K, 8000 kPa, x1 = 0.0136 | 799.8
323.11 K, 9000 kPa, x1 = 0.0136 | 800.72
323.11 K, 10000 kPa, x1 = 0.0136 | 801.63
323.11 K, 11000 kPa, x1 = 0.0136 | 802.53
323.11 K, 12000 kPa, x1 = 0.0136 | 803.44
323.11 K, 13000 kPa, x1 = 0.0136 | 804.33
323.11 K, 14000 kPa, x1 = 0.0136 | 805.21
323.11 K, 15000 kPa, x1 = 0.0136 | 806.08
323.11 K, 16000 kPa, x1 = 0.0136 | 806.95
323.11 K, 17000 kPa, x1 = 0.0136 | 807.79
323.11 K, 18000 kPa, x1 = 0.0136 | 808.63
323.11 K, 19000 kPa, x1 = 0.0136 | 809.44
323.11 K, 20000 kPa, x1 = 0.0136 | 810.25
332.92 K, 1000 kPa, x1 = 0.0012 | 757.69
332.92 K, 2000 kPa, x1 = 0.0012 | 758.72
332.92 K, 3000 kPa, x1 = 0.0012 | 759.75
332.92 K, 4000 kPa, x1 = 0.0012 | 760.77
332.92 K, 5000 kPa, x1 = 0.0012 | 761.81
332.92 K, 6000 kPa, x1 = 0.0012 | 762.85
332.92 K, 7000 kPa, x1 = 0.0012 | 763.86
332.92 K, 8000 kPa, x1 = 0.0012 | 764.88
332.92 K, 9000 kPa, x1 = 0.0012 | 765.9
332.92 K, 10000 kPa, x1 = 0.0012 | 766.9
332.92 K, 11000 kPa, x1 = 0.0012 | 767.9
332.92 K, 12000 kPa, x1 = 0.0012 | 768.88
332.92 K, 13000 kPa, x1 = 0.0012 | 769.87
332.92 K, 14000 kPa, x1 = 0.0012 | 770.83
332.92 K, 15000 kPa, x1 = 0.0012 | 771.78
332.92 K, 16000 kPa, x1 = 0.0012 | 772.72
332.92 K, 17000 kPa, x1 = 0.0012 | 773.63
332.92 K, 18000 kPa, x1 = 0.0012 | 774.53
332.92 K, 19000 kPa, x1 = 0.0012 | 775.42
332.92 K, 20000 kPa, x1 = 0.0012 | 776.29
332.93 K, 1000 kPa, x1 = 0.0074 | 770.77
332.93 K, 2000 kPa, x1 = 0.0074 | 771.77
332.93 K, 3000 kPa, x1 = 0.0074 | 772.79
332.93 K, 4000 kPa, x1 = 0.0074 | 773.79
332.93 K, 5000 kPa, x1 = 0.0074 | 774.8
332.93 K, 6000 kPa, x1 = 0.0074 | 775.81
332.93 K, 7000 kPa, x1 = 0.0074 | 776.8
332.93 K, 8000 kPa, x1 = 0.0074 | 777.8
332.93 K, 9000 kPa, x1 = 0.0074 | 778.8
332.93 K, 10000 kPa, x1 = 0.0074 | 779.77
332.93 K, 11000 kPa, x1 = 0.0074 | 780.75
332.93 K, 12000 kPa, x1 = 0.0074 | 781.71
332.93 K, 13000 kPa, x1 = 0.0074 | 782.66
332.93 K, 14000 kPa, x1 = 0.0074 | 783.61
332.93 K, 15000 kPa, x1 = 0.0074 | 784.53
332.93 K, 16000 kPa, x1 = 0.0074 | 785.45
332.93 K, 17000 kPa, x1 = 0.0074 | 786.34
332.93 K, 18000 kPa, x1 = 0.0074 | 787.23
332.93 K, 19000 kPa, x1 = 0.0074 | 788.09
332.93 K, 20000 kPa, x1 = 0.0074 | 788.95
332.95 K, 1000 kPa, x1 = 0.0196 | 799.67
332.95 K, 2000 kPa, x1 = 0.0196 | 800.63
332.95 K, 3000 kPa, x1 = 0.0196 | 801.6
332.95 K, 4000 kPa, x1 = 0.0196 | 802.56
332.95 K, 5000 kPa, x1 = 0.0196 | 803.52
332.95 K, 6000 kPa, x1 = 0.0196 | 804.48
332.95 K, 7000 kPa, x1 = 0.0196 | 805.45
332.95 K, 8000 kPa, x1 = 0.0196 | 806.4
332.95 K, 9000 kPa, x1 = 0.0196 | 807.35
332.95 K, 10000 kPa, x1 = 0.0196 | 808.29
332.95 K, 11000 kPa, x1 = 0.0196 | 809.23
332.95 K, 12000 kPa, x1 = 0.0196 | 810.15
332.95 K, 13000 kPa, x1 = 0.0196 | 811.07
332.95 K, 14000 kPa, x1 = 0.0196 | 811.98
332.95 K, 15000 kPa, x1 = 0.0196 | 812.86
332.95 K, 16000 kPa, x1 = 0.0196 | 813.75
332.95 K, 17000 kPa, x1 = 0.0196 | 814.61
332.95 K, 18000 kPa, x1 = 0.0196 | 815.46
332.95 K, 19000 kPa, x1 = 0.0196 | 816.3
332.95 K, 20000 kPa, x1 = 0.0196 | 817.11
333 K, 1000 kPa, x1 = 0.0267 | 811.86
333 K, 2000 kPa, x1 = 0.0267 | 812.8
333 K, 3000 kPa, x1 = 0.0267 | 813.76
333 K, 4000 kPa, x1 = 0.0267 | 814.69
333 K, 5000 kPa, x1 = 0.0267 | 815.65
333 K, 6000 kPa, x1 = 0.0267 | 816.59
333 K, 7000 kPa, x1 = 0.0267 | 817.53
333 K, 8000 kPa, x1 = 0.0267 | 818.45
333 K, 9000 kPa, x1 = 0.0267 | 819.38
333 K, 10000 kPa, x1 = 0.0267 | 820.29
333 K, 11000 kPa, x1 = 0.0267 | 821.22
333 K, 12000 kPa, x1 = 0.0267 | 822.11
333 K, 13000 kPa, x1 = 0.0267 | 823.01
333 K, 14000 kPa, x1 = 0.0267 | 823.9
333 K, 15000 kPa, x1 = 0.0267 | 824.77
333 K, 16000 kPa, x1 = 0.0267 | 825.63
333 K, 17000 kPa, x1 = 0.0267 | 826.48
333 K, 18000 kPa, x1 = 0.0267 | 827.32
333 K, 19000 kPa, x1 = 0.0267 | 828.13
333 K, 20000 kPa, x1 = 0.0267 | 828.94
333.04 K, 1000 kPa, x1 = 0.0136 | 784.43
333.04 K, 2000 kPa, x1 = 0.0136 | 785.41
333.04 K, 3000 kPa, x1 = 0.0136 | 786.41
333.04 K, 4000 kPa, x1 = 0.0136 | 787.39
333.04 K, 5000 kPa, x1 = 0.0136 | 788.38
333.04 K, 6000 kPa, x1 = 0.0136 | 789.37
333.04 K, 7000 kPa, x1 = 0.0136 | 790.36
333.04 K, 8000 kPa, x1 = 0.0136 | 791.33
333.04 K, 9000 kPa, x1 = 0.0136 | 792.31
333.04 K, 10000 kPa, x1 = 0.0136 | 793.27
333.04 K, 11000 kPa, x1 = 0.0136 | 794.24
333.04 K, 12000 kPa, x1 = 0.0136 | 795.2
333.04 K, 13000 kPa, x1 = 0.0136 | 796.14
333.04 K, 14000 kPa, x1 = 0.0136 | 797.07
333.04 K, 15000 kPa, x1 = 0.0136 | 797.98
333.04 K, 16000 kPa, x1 = 0.0136 | 798.89
333.04 K, 17000 kPa, x1 = 0.0136 | 799.78
333.04 K, 18000 kPa, x1 = 0.0136 | 800.65
333.04 K, 19000 kPa, x1 = 0.0136 | 801.51
333.04 K, 20000 kPa, x1 = 0.0136 | 802.34
